From PMC6106931 (Alzheimer's Research & Therapy, 2018)
Entries after “also recorded” stand apart in the source; their conditions may differ.

How the values were obtained:
[1] = cited from earlier work
[2] = human, in vivo, 4 weeks
Procedure: Safety and tolerability were assessed during the study by recording adverse events (AEs), clinically significant abnormalities, clinical laboratory tests, ECG, and vital signs and by performing physical, neurological, and MRI examinations. All enrolled participants were included in the safety analysis population.

[3] = Plasma and CSF pharmacokinetics, noncompartmental analysis, Study ALZ1008; format: in vivo, human; settings: for Kp at 28 day: CSF / free plasma, observed plasma concentration, free fraction 6%, read-out: Ratio C28d (CSF)/free plasma, Mean (SD); for concentration at 28 day: CSF, read-out: C28d, CSF concentration at Day 28, Mean (SD); for AUC: read-out: Plasma AUCτ, Day 28, Mean (SD)
Procedure: Total apparent clearance for day 28 was calculated as dose/AUCτ.
(§1) The lower limit of quantification (LLOQ) was 1 ng/ml.

[4] = Plasma and CSF pharmacokinetics, population PK modeling, Study ALZ1005; format: in vivo, human; settings: for Kp at 28 day: CSF / free plasma; for concentration at 28 day: CSF, read-out: C28d, CSF concentration at Day 28, Mean (SD); for AUC: read-out: Plasma AUCτ, Day 28, Mean (SD); for Cmax: read-out: Plasma Cmax, Day 28, Mean (SD)
Procedure: CSF and plasma collection and processing, as well as apolipoprotein E (APOE) ε4 genotyping, are described in Additional file 2. Population PK modeling from sparse PK samples collected in the ALZ1005 Study was performed to derive individual steady-state maximum plasma concentration [Cmax] and area under the concentration-time profile during the dosing interval at steady state [AUC from 0 to 24 hours postdosing]. This model was also used to derive PK/PD simulations of CSF Aβ1–40 reduction (described in “Pharmacokinetic/pharmacodynamic relationship” section below).
as §1

t-tau/p-tau181p = assay: CSF total tau / p-tau181P, Study ALZ1005; format: in vivo, human; settings: for CSF P-tau percent change from baseline at day 28, Mean (SD) / CSF P-tau percent change from baseline at day 28, Median (range) / CSF total tau percent change from baseline at day 28, Mean (SD) / CSF total tau percent change from baseline at day 28, Median (range): Caucasian early AD
Procedure: In addition, exploratory measurements of plasma/CSF levels of APP fragments (sAPPα, sAPPβ, and total sAPP) and CSF levels of BACE1, t-tau, and p-tau were performed.
Baseline Aβ1–42, p-tau181P, and t-tau concentrations were measured using Innotest® Phospho-TAU181P, Innotest® hTAU Ag, and Innotest® β-AMYLOID1–42 (Innogenetics/Fujirebio, Ghent, Belgium) and the Luminex analytical platform (Luminex Corp., Austin, TX, USA). CSF samples from both the ALZ1005 (Caucasian) and ALZ1008 (Japanese) studies were analyzed in the same laboratory setting using the same assays and analytical platform. Diagnostic threshold CSF concentrations for AD vs. normal controls for Aβ1–42 were applied to the current sample set to judge the likelihood of having cerebral amyloid plaque deposition.
Treatment effect on plasma/CSF Aβ as compared with placebo was estimated by 95% CI for percent changes from baseline in each of the Aβ fragments (Aβ1–37, Aβ1–38, Aβ1–40, and Aβ1–42) in CSF and plasma. For primary and secondary biomarkers, day 28% changes from baseline, the least squares (LS) means (converted to original units), and treatment differences relative to placebo (with corresponding 95% CI) were analyzed on the basis of an analysis of covariance model that included treatment group and baseline score as a covariate. Day 28 changes from baseline in CSF tau/p-tau were summarized using descriptive statistics. Data were summarized and plotted by dose group, and exposure-response relationship was explored. […] Variability of predose baseline parameters vs. day 28 individual CSF ratios of Aβ1–42 to Aβ1–40 across treatment groups was explored graphically. Analyses were performed on individual populations of preclinical AD and MCI due to AD as well as the combined population of early AD.

[5] = Japanese preclinical AD, 10 mg q.d.
[6] = Japanese preclinical AD, 50 mg q.d.
[7] = human, plasma, oral, Caucasian early AD, 10 mg q.d., population PK modeling
[8] = human, plasma, oral, Caucasian early AD, 50 mg q.d., population PK modeling

C[C@@]1(c2cc(NC(=O)c3ccc(C#N)cn3)ccc2F)C=CSC(N)=N1 [atabecestat]
plasma atabecestat free fraction [1]: 6%
TEAE incidence (genital herpes) [2]: 5.6%
day at or before which steady-state PK was reached ([3]; Japanese participants, based on mean predose concentrations): ≤ 8 days
DN AUCτ (dose normalization to 5 mg), Day 28, Mean (SD) [3, 5]: 555 (158) ng.h/mL
DN Cmax (dose normalization to 5 mg), Day 28, Mean (SD) [3, 5]: 53.6 (14.1) ng/mL
Plasma Tmax, Day 28, Median (Range) [3, 5]: 2.0 (1.0-3.0) h
DN AUCτ (dose normalization to 5 mg), Day 28, Mean (SD) [3, 6]: 473 (255) ng.h/mL
DN Cmax (dose normalization to 5 mg), Day 28, Mean (SD) [3, 6]: 51.6 (26.7) ng/mL
Plasma Cmax, Day 28, Mean (SD) [3, 6]: 516 (267) ng/mL
Plasma Tmax, Day 28, Median (Range) [3, 6]: 1.5 (1.0-2.0) h
Kp at 28 day ([3]; human, oral, 10 mg, Japanese preclinical AD, 10 mg q.d.): 0.65
Kp at 28 day ([3]; human, oral, 50 mg, Japanese preclinical AD, 50 mg q.d.): 0.83
concentration at 28 day ([3]; human, oral, Japanese preclinical AD, 10 mg q.d.): 3.29 ng/mL
concentration at 28 day ([3]; human, oral, Japanese preclinical AD, 50 mg q.d.): 19.1 ng/mL
AUC ([3]; human, plasma, oral, Japanese preclinical AD, 10 mg q.d.): 1110 ng·h/mL
Cmax ([3]; human, plasma, oral, Japanese preclinical AD, 10 mg q.d., read-out: Plasma Cmax, Day 28, Mean (SD)): 107 ng/mL
AUC ([3]; human, plasma, oral, Japanese preclinical AD, 50 mg q.d.): 4730 ng·h/mL
CNS penetrance of unbound drug ([4]; Caucasian and Japanese early AD): high central nervous system penetrance of unbound drug; also recorded: high CNS penetrance of unbound drug
CL/F ([4]; Caucasian early AD (preclinical AD and MCI due to AD), 10 and 50 mg q.d., population PK estimate, intersubject CV 30%): 8.32 L/h
DN AUCτ (dose normalization to 5 mg), Day 28, Mean (SD) ([4]; Caucasian early AD, 10 mg q.d.): 616 (185) ng.h/mL
DN C28d (CSF, dose normalization to 5 mg), Mean (SD) ([4]; Caucasian early AD, 10 mg q.d.): 1.54 (0.52) ng/mL
DN Cmax (dose normalization to 5 mg), Day 28, Mean (SD) ([4]; Caucasian early AD, 10 mg q.d.): 55 (10) ng/mL
DN AUCτ (dose normalization to 5 mg), Day 28, Mean (SD) ([4]; Caucasian early AD, 50 mg q.d.): 620 (171) ng.h/mL
DN C28d (CSF, dose normalization to 5 mg), Mean (SD) ([4]; Caucasian early AD, 50 mg q.d.): 1.51 (0.71) ng/mL
PK linearity ([4]; both populations, 10 and 50 mg): linear PK
Kp at 28 day ([4]; human, oral, Caucasian early AD, 10 mg q.d., simulated plasma concentration, free fraction 6%, read-out: Ratio C28d (CSF)/free plasma, Mean (SD)): 0.789
Kp at 28 day ([4]; human, oral, Caucasian early AD, 50 mg q.d., simulated plasma concentration, free fraction 6%, read-out: Ratio C28d (CSF)/free plasma, Mean (SD)): 0.892
Kp at 28 day ([4]; human, oral, Caucasian early AD, 10-mg and 50-mg groups together, day 28): 0.84
concentration at 28 day ([4]; human, oral, Caucasian early AD, 10 mg q.d.): 3.08 ng/mL
concentration at 28 day ([4]; human, oral, Caucasian early AD, 50 mg q.d.): 15.1 ng/mL
Tmax at 28 day [4, 7]: 1.7 h
AUC [4, 7]: 1230 ng·h/mL
Cmax [4, 7]: 110 ng/mL
AUC [4, 8]: 6200 ng·h/mL
Cmax [4, 8]: 550 ng/mL
Tmax ([4]; human, plasma, oral, Caucasian early AD, 50 mg q.d., population PK modeling, read-out: Plasma Tmax, Day 28): 1.8 h
changes in CSF t-tau or p-tau over 4-week treatment (t-tau/p-tau181p; 10-mg and 50-mg doses, Caucasian and Japanese): no relevant changes
CSF P-tau percent change from baseline at day 28, Mean (SD) (t-tau/p-tau181p; 10 mg daily): 3.56 (4.797) %
CSF P-tau percent change from baseline at day 28, Median (range) (t-tau/p-tau181p; 10 mg daily): 3.45 (− 4.6; 11.5) %
CSF total tau percent change from baseline at day 28, Mean (SD) (t-tau/p-tau181p; 10 mg daily): 4.18 (7.629) %
CSF total tau percent change from baseline at day 28, Median (range) (t-tau/p-tau181p; 10 mg daily): 6.76 (− 11.2; 16.1) %
CSF P-tau percent change from baseline at day 28, Mean (SD) (t-tau/p-tau181p; 50 mg daily): 7.36 (3.648) %
CSF P-tau percent change from baseline at day 28, Median (range) (t-tau/p-tau181p; 50 mg daily): 7.42 (1.6; 16.7) %
CSF total tau percent change from baseline at day 28, Mean (SD) (t-tau/p-tau181p; 50 mg daily): 8.02 (6.557) %
CSF total tau percent change from baseline at day 28, Median (range) (t-tau/p-tau181p; 50 mg daily): 7.64 (− 4.5; 23.4) %
